Where “and” joins values, the source holds several entries; their conditions need not be identical. Identical values can stand only once.
Key:
BMX = BMX (Homo sapiens (Human), UniProt P51813); test: 33P ATP HotSpot kinase assay, BMX; type: biochemical; conditions: 10 μM ATP
Protocol: (§1) (See, e.g., Ma, et al, 2008 Expert Opin Drug Discov. 3(6): 607-621.)
(§2) Each of Compound-1 to Compound-24 was measured for its inhibitory activity on TEC family kinases, BMX and ITK. The measurement was carried out in the same process as described above, BMX, ITK enzymes were used.

BTK wt = BTK wt (Homo sapiens (Human), UniProt Q06187); test: 33P ATP HotSpot kinase assay, BTK wt; type: biochemical; conditions: 10 μM ATP
BTK wt, sequence (Q06187 whole entry): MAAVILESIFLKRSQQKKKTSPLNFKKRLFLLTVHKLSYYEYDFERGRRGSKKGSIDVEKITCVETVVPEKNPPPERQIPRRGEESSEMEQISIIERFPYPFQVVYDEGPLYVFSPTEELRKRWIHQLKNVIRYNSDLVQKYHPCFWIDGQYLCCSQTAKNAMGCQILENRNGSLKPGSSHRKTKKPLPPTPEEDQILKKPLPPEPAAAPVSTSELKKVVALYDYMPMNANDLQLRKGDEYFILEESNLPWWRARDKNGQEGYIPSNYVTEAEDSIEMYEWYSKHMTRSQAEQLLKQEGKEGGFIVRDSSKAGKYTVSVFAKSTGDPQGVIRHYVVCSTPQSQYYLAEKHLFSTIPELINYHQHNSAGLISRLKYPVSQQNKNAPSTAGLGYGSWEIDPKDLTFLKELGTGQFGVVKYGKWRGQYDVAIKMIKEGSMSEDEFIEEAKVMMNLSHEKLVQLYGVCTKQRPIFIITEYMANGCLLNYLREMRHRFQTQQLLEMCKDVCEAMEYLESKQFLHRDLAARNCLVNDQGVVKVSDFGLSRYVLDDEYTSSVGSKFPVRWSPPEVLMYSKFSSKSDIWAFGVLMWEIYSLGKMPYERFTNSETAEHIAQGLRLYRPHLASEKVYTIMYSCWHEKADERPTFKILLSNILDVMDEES
Source text: as §1

EGFR wt = EGFR wt (Homo sapiens (Human), UniProt P00533); test: 33P ATP HotSpot kinase assay, EGFR wt; type: biochemical; conditions: 10 μM ATP
EGFR wt, sequence (P00533 25-1210): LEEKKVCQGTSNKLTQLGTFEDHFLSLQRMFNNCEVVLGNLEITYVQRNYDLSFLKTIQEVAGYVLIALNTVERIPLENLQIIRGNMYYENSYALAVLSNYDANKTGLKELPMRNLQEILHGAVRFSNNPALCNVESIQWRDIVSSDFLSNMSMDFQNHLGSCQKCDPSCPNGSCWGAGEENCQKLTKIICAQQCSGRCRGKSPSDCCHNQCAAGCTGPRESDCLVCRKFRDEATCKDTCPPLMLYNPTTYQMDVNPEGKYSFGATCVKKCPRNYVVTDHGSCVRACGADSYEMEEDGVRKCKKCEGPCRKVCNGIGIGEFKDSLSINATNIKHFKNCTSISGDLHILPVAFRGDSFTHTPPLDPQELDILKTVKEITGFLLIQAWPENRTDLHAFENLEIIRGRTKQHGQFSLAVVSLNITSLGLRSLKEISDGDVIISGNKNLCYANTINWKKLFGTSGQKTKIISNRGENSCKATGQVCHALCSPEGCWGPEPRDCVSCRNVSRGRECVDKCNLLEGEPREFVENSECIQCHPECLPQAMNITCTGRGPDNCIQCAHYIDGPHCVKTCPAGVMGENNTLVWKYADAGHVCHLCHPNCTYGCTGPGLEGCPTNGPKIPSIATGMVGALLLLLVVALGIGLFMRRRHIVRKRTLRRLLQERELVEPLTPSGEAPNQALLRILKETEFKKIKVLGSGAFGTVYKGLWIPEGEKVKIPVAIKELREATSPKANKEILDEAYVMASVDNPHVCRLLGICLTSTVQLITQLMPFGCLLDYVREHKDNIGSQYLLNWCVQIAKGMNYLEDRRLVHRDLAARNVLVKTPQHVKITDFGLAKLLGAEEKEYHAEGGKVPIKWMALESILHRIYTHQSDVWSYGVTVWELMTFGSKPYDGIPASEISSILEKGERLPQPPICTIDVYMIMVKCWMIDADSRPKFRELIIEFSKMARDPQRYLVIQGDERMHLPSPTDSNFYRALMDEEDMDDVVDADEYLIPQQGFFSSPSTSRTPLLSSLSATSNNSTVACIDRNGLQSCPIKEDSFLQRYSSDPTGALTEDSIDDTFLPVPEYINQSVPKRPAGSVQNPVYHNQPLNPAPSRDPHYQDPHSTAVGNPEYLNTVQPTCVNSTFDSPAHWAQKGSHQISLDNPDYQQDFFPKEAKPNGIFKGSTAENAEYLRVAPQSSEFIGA

ITK = ITK (Homo sapiens (Human), UniProt Q08881); test: 33P ATP HotSpot kinase assay, ITK; type: biochemical; conditions: 10 μM ATP
ITK, sequence (Q08881 whole entry): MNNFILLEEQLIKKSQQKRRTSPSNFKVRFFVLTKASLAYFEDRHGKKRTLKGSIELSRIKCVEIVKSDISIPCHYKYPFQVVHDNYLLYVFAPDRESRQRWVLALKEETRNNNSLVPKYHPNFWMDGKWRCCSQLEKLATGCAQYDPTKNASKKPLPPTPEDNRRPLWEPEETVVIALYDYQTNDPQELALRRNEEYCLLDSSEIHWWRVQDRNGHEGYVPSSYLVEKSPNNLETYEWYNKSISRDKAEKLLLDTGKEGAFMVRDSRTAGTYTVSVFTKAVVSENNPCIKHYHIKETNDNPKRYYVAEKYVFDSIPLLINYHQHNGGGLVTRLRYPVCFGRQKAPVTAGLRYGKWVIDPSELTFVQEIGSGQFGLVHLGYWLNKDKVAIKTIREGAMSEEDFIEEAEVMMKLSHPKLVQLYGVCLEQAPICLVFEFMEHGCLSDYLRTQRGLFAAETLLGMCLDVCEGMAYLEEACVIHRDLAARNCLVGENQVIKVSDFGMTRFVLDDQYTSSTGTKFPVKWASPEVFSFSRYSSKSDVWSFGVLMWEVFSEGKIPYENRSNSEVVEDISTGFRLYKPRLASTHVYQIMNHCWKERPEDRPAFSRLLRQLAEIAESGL
Protocol: as §1, §2

ERK1 kinase = ERK1 kinase (Homo sapiens (Human), UniProt P27361); test: 33P ATP HotSpot kinase assay, ERK1; type: biochemical; conditions: 10 μM ATP
ERK1 kinase, sequence (P27361 whole entry): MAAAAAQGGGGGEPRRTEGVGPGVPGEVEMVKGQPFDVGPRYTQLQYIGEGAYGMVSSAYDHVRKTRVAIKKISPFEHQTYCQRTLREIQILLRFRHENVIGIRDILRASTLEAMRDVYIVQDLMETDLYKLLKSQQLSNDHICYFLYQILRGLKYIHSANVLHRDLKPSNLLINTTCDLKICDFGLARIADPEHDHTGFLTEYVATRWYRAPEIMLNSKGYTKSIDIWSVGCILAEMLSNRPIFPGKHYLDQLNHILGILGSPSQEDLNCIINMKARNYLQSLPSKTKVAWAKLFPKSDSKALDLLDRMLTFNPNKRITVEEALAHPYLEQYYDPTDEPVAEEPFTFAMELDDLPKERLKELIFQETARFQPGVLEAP
Protocol: as §1
Certain compounds of Compound-1 to Compound-24 were measured for its inhibitory activity on ERK1 kinase. The measurement was carried out in the same process as described above, ERK enzyme was used.

[1] = molecular target: BTK phosphorylation at tyrosine 223 (Homo sapiens (Human), UniProt Q06187); test: Immunoblot analysis of phospho-BTK(Y223) in Ramos cells; type: cell-based; conditions: 1 hr treatment, anti-IgM stimulation, western blot
BTK phosphorylation at tyrosine 223, sequence (Q06187 whole entry): as the sequence (Q06187 whole entry) above
Protocol: Ramos cells were cultured in RPMI-1640 medium with 10% fetal bovine serum (FBS) and 1% penicillin/streptomycin (Gibco BRL). Before the assay, Ramos cells were counted and seeded at 1×10^6 cells/mL, cultured overnight in RPMI-1640 medium with 10% FBS, the cells were centrifuged at 950 rpm for 10 min., then 1˜2×10^6 cells were split into each tube in 300 μL medium. The cells were treated with certain compounds of Compound 1-24 at 0˜3 μM for 1 hr. in 37° C., then the cells were stimulated with 10 μg/mL of anti-IgM (BioLegend) for 5 min., followed by 3 min. spin at 2000 rpm. After aspirating the supernatant, 60 μL of RIPA lysis buffer (50 mM Tris-HCl, 1 mM EDTA, 1% NP-40, 0.5% sodium deoxycholate, and 0.1% SDS, pH 7.4, 150 mM NaCl, 1 mM Na3VO4) was added to the cell pellet to lyse the cells on ice for 30 min. After spin at 10,000 rpm for 5 min., 60 μL of the cell lysate was transferred to a fresh tube, and 20 μL of 4× LDS buffer was added to the tube. The samples were boiled on a 100° C. heat block for 10 min. 25 μL lysate was loaded on to SDS-PAGE gel (NuPAGE™ Novex™ 4-12% Bis-Tris Midi Protein Gels, cat. no. WG1402BOX, ThermoFisher) for western blotting analysis per the manufacturer's instructions. Antibodies used for immunoblot analysis include Btk and p-Btk(Y223) (cat. no. 3553 and 5082; Cell Signaling Technology, Beverly, Mass.). p-Btk(Y223) (cat. no. GTX61791; GeneTex, Inc., Irvine, Calif.). Membranes were detected using infrared fluorescence dye (IRDye® 800CW Donkey anti-Rabbit IgG (H+L), cat. no. P/N 925-32213; IRDye® 680RD Donkey anti-Mouse IgG (H+L), cat. no. P/N 925-68072 and scanned on a LiCor Odyssey scanner (LiCor Biosciences, Lincoln, Nebr.).

[2] = molecular target: FAK phosphorylation at tyrosine 397 (Homo sapiens (Human), UniProt Q05397); test: Cell-based FAK(Y397) phosphorylation ELISA in PC3 cells; conditions: 1 hr treatment, read-out: EC50 phospho-FAK(Y397)
FAK phosphorylation at tyrosine 397, sequence (Q05397 whole entry): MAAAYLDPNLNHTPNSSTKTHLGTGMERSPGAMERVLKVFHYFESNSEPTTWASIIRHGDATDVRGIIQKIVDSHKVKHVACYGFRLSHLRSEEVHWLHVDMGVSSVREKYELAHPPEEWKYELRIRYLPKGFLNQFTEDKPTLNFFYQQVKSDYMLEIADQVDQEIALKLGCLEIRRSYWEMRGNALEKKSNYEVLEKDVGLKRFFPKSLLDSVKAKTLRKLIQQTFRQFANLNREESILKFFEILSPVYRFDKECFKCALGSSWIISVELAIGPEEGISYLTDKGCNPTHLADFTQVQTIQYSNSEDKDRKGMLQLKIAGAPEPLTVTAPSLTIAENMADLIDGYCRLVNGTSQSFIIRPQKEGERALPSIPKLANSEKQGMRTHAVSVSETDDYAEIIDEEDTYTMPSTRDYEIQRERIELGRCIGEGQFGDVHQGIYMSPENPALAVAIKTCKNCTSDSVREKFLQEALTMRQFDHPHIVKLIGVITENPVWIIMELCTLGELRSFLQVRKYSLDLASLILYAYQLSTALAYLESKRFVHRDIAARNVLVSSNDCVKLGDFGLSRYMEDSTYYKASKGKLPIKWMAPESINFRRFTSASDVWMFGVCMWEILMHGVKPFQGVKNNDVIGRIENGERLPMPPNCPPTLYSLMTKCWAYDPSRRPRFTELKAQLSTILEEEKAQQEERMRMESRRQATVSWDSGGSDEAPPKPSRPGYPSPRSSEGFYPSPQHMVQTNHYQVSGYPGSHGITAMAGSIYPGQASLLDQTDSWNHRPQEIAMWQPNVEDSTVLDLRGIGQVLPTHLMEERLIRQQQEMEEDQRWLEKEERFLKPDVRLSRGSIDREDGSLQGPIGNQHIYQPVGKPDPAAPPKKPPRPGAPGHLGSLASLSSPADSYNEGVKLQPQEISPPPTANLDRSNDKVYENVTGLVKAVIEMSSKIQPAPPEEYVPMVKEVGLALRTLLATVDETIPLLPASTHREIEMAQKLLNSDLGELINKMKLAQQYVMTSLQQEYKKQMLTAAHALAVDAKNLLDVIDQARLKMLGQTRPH

[3] = system: ERK phosphorylation at T202/Y204; test: Cell-based ERK1/2 (T202/Y204) phosphorylation ELISA in EOL-1 cells; conditions: 3 hr or 15 hr treatment, read-out: EC50 phospho-ERK1/2 (T202/Y204)
Protocol: EOL-1 cells were cultured in RPMI-1640 medium with 10% fetal bovine serum (FBS) and 1% penicillin/streptomycin (Gibco BRL). Before the assay, EOL-1 cells were counted and seeded at 1×10^6 cells/well in a 6-well plate, cultured overnight in RPMI-1640 medium with 10% FBS. The cells were treated with certain compounds of Compounds 1-24 at 0˜3 μM for 3 hr. or 15 hr. at 37° C., then the cells were harvested, followed by 5 min. spin at 2000 rpm. After aspirating the supernatant, the cells were washed with cold PBS, span again, then 100 μL of RIPA lysis buffer (50 mM Tris-HCl, 1 mM EDTA, 1% NP-40, 0.5% sodium deoxycholate, and 0.1% SDS, pH 7.4, 150 mM NaCl, 1 mM Na3VO4) was added to the cell pellet to lyse the cells on ice for 30 min. After spin at 12,000 rpm for 5 min., 90 μL of the cell lysate was transferred to a fresh tube.
For an enzyme-linked immunosorbent assay (ELISA) assay, 10 μL of the lysate was used for p-ERK1/2 (T202/Y204) elisa assay. ELISA was done using the ERK 1/2 (pT202/Y204 +Total) ELISA Kit (Abcam, ab176660) according to the manufacturer's instructions. Specifically, add 50 μL of all samples or standards to appropriate wells. Add 50 μL of the Antibody Cocktail to each well. Seal the plate and incubate for 1 hr. at r.t. on a plate shaker set to 400 rpm. Wash each well with 3×350 μL 1× Wash Buffer PT. […] This is an endpoint reading.

EOL-1 cells = test: Cancer cell growth inhibition, EOL-1; type: cell-based; conditions: Homo sapiens, EOL1, 72 hr, cell viability
Protocol: (§3) In order to test certain compounds of Compounds 1 to 24 for cancer cell growth inhibition, a leukemia cancer cell line EOL-1, and triple negative breast cancer cell line MDA-MB-231 was used.
(§4) EOL-1 and MDA-MB-231 cells were cultured in a RPMI-1640 cell culture medium supplemented with 10% fetal bovine serum (FBS) and 1% penicillin/streptomycin (Gibco BRL).
(§5) The cancer cell lines stored in a liquid nitrogen tank were each quickly thawed at 37° C. water bath, and centrifuged to remove the DMSO in the freezing medium. The resulting cell pellet was mixed with a culture medium, incubated in a culture flask at 37° C. under 5% CO2 for 2 to 3 days. The EOL-1 cells were sub-cultured by 1:5˜10 dilution in fresh culture medium. For MD-MB-231 cells, the culture medium was removed and the remaining cells were washed with PBS (Phosphate Buffered Saline) and trypsinized by trypsin-EDTA. The detached cells were sub-cultured by 1:5˜10 dilution in fresh culture medium.
(§6) For the cell growth inhibition assay, the cells were seeded in 96-well cell culture plates at 5×10^4 cells/well for EOL-1 and 5×10^3 cells/well for MDA-MB-231 cells in 50 μL and incubated at 37° C. under 5% CO2 for 3 to 6 hr. before the compounds were added.
(§7) Certain compounds of Compounds 1-24 were dissolved in dimethylsulfoxide (DMSO) to a concentration of 10 mM. The DMSO solution containing test compound was diluted with a culture medium to a final concentration of 600 μM, and then diluted 100 times to 6 μM as top dose followed by 1:3 serial dilutions, and then add 50 μL diluted compounds to the 50 μL cells, with a final top dose at 3 μM and the plate was incubated at 37° C. under 5% CO2 for 72 hr. The cell viability was determined by Cell Meter™ Fluorimetric Cell Cytotoxicity Assay Kit (AAT Bioquest) according to the manufacturer's instructions. Briefly, thaw and warm up the Assay Solution (Component A) to 37° C., and mix it thoroughly. Add 20 μL/well (96-well plate) of Assay Solution (Component A). Mix the reagents by shaking the plate gently for 30 seconds. Incubate the cells in a 37° C., 5% CO2 incubator for 1-24 hr., protected from light. Monitor the fluorescence intensity (bottom read) at Ex/Em=540/590 nm. Alternatively, read the O.D. at 570 nm (the reference wavelength should be 600 nm) to determine the cell viability in each well.

MDA-MB-231 cells = test: Cancer cell growth inhibition, MDA-MB-231; type: cell-based; conditions: Homo sapiens, 72 hr, cell viability
Protocol: as §3, §4, §5, §6, §7

FAK = FAK (Homo sapiens (Human), UniProt Q05397); test: 33P ATP HotSpot kinase assay, FAK; conditions: read-out: IC50 FAK, 10 μM ATP
FAK, sequence (Q05397 whole entry): as above

BMX, sequence (P51813 whole entry): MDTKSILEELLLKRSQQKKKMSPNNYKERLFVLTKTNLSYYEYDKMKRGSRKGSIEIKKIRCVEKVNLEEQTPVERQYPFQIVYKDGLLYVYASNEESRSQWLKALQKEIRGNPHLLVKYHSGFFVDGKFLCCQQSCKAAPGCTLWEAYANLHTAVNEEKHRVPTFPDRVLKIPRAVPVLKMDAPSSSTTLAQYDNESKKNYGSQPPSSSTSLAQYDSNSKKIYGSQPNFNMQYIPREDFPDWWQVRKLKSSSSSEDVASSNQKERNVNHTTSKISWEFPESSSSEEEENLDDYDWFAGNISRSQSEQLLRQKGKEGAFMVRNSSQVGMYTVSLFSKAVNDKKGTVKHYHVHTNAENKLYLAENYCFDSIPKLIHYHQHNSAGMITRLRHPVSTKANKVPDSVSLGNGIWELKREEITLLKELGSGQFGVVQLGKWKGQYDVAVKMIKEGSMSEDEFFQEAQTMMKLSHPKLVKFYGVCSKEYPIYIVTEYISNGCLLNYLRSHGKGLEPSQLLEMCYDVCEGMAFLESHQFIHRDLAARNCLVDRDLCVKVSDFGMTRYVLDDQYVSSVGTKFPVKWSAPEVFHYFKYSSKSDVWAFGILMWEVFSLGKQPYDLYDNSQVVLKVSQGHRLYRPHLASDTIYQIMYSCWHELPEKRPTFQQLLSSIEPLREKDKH

- IC50 (BMX): 1.21 nM
- IC50 (BTK wt): 2.33 nM
- IC50 (EGFR wt): 1900 nM and > 1000 nM
- IC50 (ITK): 270 nM
- IC50 (ERK1 kinase): 6.23 nM
- EC50 [1]: 100 to 1000 nM
- EC50 [2]: < 100 nM
- EC50 [3]: < 100 nM
- IC50 (EOL-1 cells): 25 nM
- IC50 (MDA-MB-231 cells): 300 nM
- IC50 (FAK): 17.4 nM
SMILES: C=CC(=O)Nc1ccccc1Nc1nc(Nc2ccc3c(c2)OCCOCCOCCO3)nc2[nH]cnc12 [Compound-11, N-[2-[[2-(2,5,8,11-tetraoxabicyclo[10.4.0]hexadeca-1(12),13,15-trien-14-ylamino)-9H-purin-6-yl]amino]phenyl]prop-2-enamide]
